Experimental data published in PMC4730229, “Benzobisthiazoles Represent a Novel Scaffold for Kinase Inhibitors of CLK Family Members” (Biochemistry, 2015).

Columns and labels:
Assay type in all cases: biochemical
[1] = target: T1, GST-CLK2cd (CLK2 catalytic domain) (Homo sapiens, UniProt P49760); experiment: High-throughput screen, Kinase-Glo in vitro kinase assay; conditions: compound at 10 μM; read-out: percentage of inhibition on CLK2 (primary screen)
T1 construct: cDNA encoding the CLK2 catalytic domain (CLK2cd, amino acids 140–496); made in house; host or cells: Escherichia coli BL21(DE3)-R3-lambda-PPase
T1 sequence (P49760 140-496): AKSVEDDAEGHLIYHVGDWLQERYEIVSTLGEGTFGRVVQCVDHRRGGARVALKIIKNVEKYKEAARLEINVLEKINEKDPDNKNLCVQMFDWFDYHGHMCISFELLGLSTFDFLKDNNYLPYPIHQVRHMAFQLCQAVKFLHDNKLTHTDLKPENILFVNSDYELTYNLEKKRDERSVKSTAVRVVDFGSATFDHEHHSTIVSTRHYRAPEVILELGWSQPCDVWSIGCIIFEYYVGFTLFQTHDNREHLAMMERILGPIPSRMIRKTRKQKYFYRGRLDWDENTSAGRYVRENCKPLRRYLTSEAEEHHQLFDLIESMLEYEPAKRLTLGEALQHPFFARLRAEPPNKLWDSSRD
Description: A small molecule inhibitor library consisting of 1600 compounds was obtained from LIFE Chemicals (Kiev, Ukraine). These compounds are part of the CUTE kinase collection that was predicted by in silico profiling against a panel of targets and includes potent kinase inhibitor compounds.[16] Compounds were dissolved as 10 mM stocks in DMSO and stored at room temperature, in the presence of 5% humidity and 5% oxygen in the dark in a Roylan Storage Pod system. Compounds were dispensed into white 384-well plates using the Labcyte Echo520 instrument at a final concentration of 10 μM. Next, 5 μL of 144.92 nM purified GST-CLK2cd in kinase assay buffer A was added to the compounds, incubated for 10 min at room temperature prior to addition of 5 μL of a 2 μM ATP/10 μM S6K peptide mixture, and incubated again for 60 min at room temperature. Subsequently, 10 μL of Kinase-Glo was added to the wells, and the plates were analyzed after 10 min on the Envision II multilabel plate reader (PerkinElmer). […] The percentage of inhibition is equal to 100 – [(total ATP before assay – remaining ATP in assay with compound)/(total ATP before assay – remaining ATP in assay with DMSO) × 100].

[2] = tested on: firefly luciferase; experiment: Luciferase inhibition assay (Kinase-Glo, no kinase); conditions: compound at 10 μM
Description: For analysis of luciferase inhibition, 10 μL of luciferase reagent (Kinase-Glo, Promega) was added to 10 μL of a mixture consisting of 1 μM ATP and 5 μM S6K and 10 μM compound (potential kinase inhibitor) in buffer A in the absence of kinase and incubated for 10 min at room temperature in a white well plate before the luminescence was read. The percentage of inhibition is equal to (luminescence in the assay without compound – luminescence in the assay with compound)/(luminescence in the assay without compound) × 100.

[3] = target: CLK2 (Homo sapiens, UniProt P49760); experiment: Kinase inhibition assay, IC50; set-up: cDNA encoding the CLK2 catalytic domain (CLK2cd, amino acids 140–496); made in house; host or cells: Escherichia coli BL21(DE3)-R3-lambda-PPase; conditions: relative to 3A5
CLK2, sequence (P49760 140-496): as above

[4] = target: T2, CLK3 (Homo sapiens, UniProt P49761); experiment: Kinase inhibition assay, IC50
T2 construct: The catalytic domains of CLK1, CLK2, CLK3, CLK2K193A, and CLK2K193A/D290A were tagged with GST; GST (N); made in house
T2 sequence (P49761 156-472 limits assumed): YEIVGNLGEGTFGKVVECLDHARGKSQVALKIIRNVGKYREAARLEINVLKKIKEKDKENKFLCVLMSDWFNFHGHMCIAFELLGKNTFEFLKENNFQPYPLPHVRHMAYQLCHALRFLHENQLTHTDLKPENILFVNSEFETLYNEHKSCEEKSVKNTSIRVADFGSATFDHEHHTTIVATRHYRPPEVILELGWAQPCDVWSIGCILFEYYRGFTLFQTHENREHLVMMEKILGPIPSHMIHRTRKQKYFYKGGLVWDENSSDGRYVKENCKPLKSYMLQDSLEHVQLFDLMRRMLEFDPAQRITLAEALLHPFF

inhibition at 10 µM [1] [%] | % inhibition of luciferase [2] [%] | decrease of inhibition against CLK2 compared to 3A5 [3] | IC50 [4] [µM] | Structure (SMILES)
50 | 8.1 ± 1.8 | – | – | O=C(Nc1nc2c(s1)CCCC2)C1CC1 [1C11]
51 | 17.5 ± 4.5 | – | – | CC(=O)Nc1ccc(-c2nc3c(Cl)cccc3[nH]2)cc1 [2A4]
65 | 26 ± 1.1 | – | – | O=C(Nc1cccc(-c2nc3ccccc3[nH]2)c1)c1ccc2ncsc2c1 [3B5]
56 | 20.4 ± 1.6 | – | – | O=C(NCCO)c1ccc(Nc2nc(-c3ccccc3)c3cc(Cl)ccc3n2)cc1 [4B9]
50 | 47.8 ± 2.1 | – | – | Cc1nc2c(ccc3nc(NC(=O)c4cccs4)sc32)s1 [4G9]
58 | 26.4 ± 2.4 | – | – | Fc1ccc(-c2csc3ncnc(NCc4ccccc4)c23)cc1 [5E11]
55 | 23.6 ± 1.5 | 2–3 fold | – | CSc1nc2ccc3nc(NC(=O)c4ccc(S(=O)(=O)N5CCOCC5)cc4)sc3c2s1 [5F4]
53 | 19.6 ± 3.6 | – | – | COc1cc(C(=O)Nc2nc3ccc(S(=O)(=O)N4CCCCC4)cc3s2)cc(OC)c1OC [7C4]
53 | 18.8 ± 1.6 | – | – | CC(=O)Nc1nc2cc3c(cc2s1)OCO3 [8A6]
52 | 0 ± 6.2 | – | – | COCCNC(=O)c1cccc(Nc2nc(-c3ccccc3)c3cc(Cl)ccc3n2)c1 [8B5]
58 | 5.6 ± 4.0 | – | – | O=C(O)c1ccc(C(=O)Nc2ccccc2-c2nc3ccccc3[nH]2)cc1 [9C6]
51 | 0 ± 2.4 | – | – | COc1ccc(Cc2cnc(NC(=O)c3cc(C)oc3C)s2)cc1 [13D3]
53 | 21.9 ± 0.2 | – | – | COc1ccccc1C(=O)Nc1nc2ncccc2cc1-c1ccccc1 [17F6]
58 | 17.5 ± 2.2 | – | – | CC1(C)Cc2cccc(OCC(=O)Nc3cccc(-c4cc[nH]n4)c3)c2O1 [18B6]
56 | 21.1 ± 2.2 | – | – | O=C(Nc1cccc(-c2nc3ccccc3[nH]2)c1)c1ccc2nsnc2c1 [18H3]
– | – | – | > 3 | O=C1N=C(NCc2cccs2)S/C1=C\c1ccc2ncccc2c1 [NR9, (5Z)-5-(quinolin-6-ylmethylidene)-2-[(thiophen-2-ylmethyl)amino]-1,3-thiazol-4(5H)-one]
63 | 13.4 ± 1.8 | – | – | CCN1/C(=C/C(C)=O)Sc2ccc(OC)cc21 [TG003, reference compound]
